Data from patent US20150313913A1, “POSITIVE ALLOSTERIC MODULATORS OF THE GABA-A RECEPTOR IN THE TREATMENT OF AUTISM” (UNIVERSITY OF WASHINGTON THROUGH ITS CENTER FOR …, priority 2013, published 2015).
“Also recorded” adds a separate entry of the source.

Tests used:
[1] = test system: GABA-A α2, α3 and α5 subtypes; details: cited from earlier work
[2] = cited from earlier work
[3] = test system: wild-type mice; experiment: Open-field social interaction test; assay type: in vivo; details: 0.0625 mg/kg, listed as CLZ
Procedure: (§1) The open-field social interaction test was performed as described previously^64 with minor modifications. The test was performed in the open field arena that was used for the open field test. An age- and gender-matched C57Bl/6J mouse (M) caged in a rectangular wire mesh cage (6×6×10 cm), was used as a social cue. The stranger mouse had never been exposed to the test mouse. The test mouse was placed in the open field arena with an empty wire cage for 10 min for habituation. Following the 10 min session, a stranger mouse was placed in the same cage and the test mouse was allowed to explore the arena for another 10 min. The empty cage or caged stranger mouse was placed in the center of one quadrant of the arena, and immobilized on the floor of the arena with double-sided tape. […] The movement of the mouse was recorded with a USB webcam (LIFECAM™ HD-6000, MICROSOFT™) and PC-based video-capture software (WINAVI™ Video Capture, ZJ MEDIA DIGITAL TECHNOLOGY™). The recorded video file was further analyzed by off-line video tracking software (ETHOVISION™ XT 7.0). Time spent in the cage-containing quadrant, and time spent in the area 5 cm proximal to the cage were measured. Immobilization behavior was also measured by video tracking software. […] All data shown are means±s.e.m. and analyzed using two-way ANOVA with Bonferroni's post hoc analysis. […]

[4] = test system: Scn1a+/− mice; experiment: Open-field social interaction test; assay type: in vivo; details: single i.p. 0.0625 mg/kg 30 min before test, listed as CLZ
Procedure: as §1

[5] = test system: BTBR mice; experiment: Open-field reciprocal social interaction test; assay type: in vivo; details: for nose-to-nose interaction with stranger mouse / total (reciprocal) social interaction with stranger mouse: low dose (0.05 mg/kg), Pre/CLZ/Post at one-week intervals, 0.05 mg/kg
Procedure: (§2) A test mouse and an age- and gender-matched stimulus mouse with a mixed C57BL/6J×129 genetic background were introduced in an open field arena (50×50 cm). Mice were socially naïve with each other. The social interactions of mice were recorded by USB webcam (LifeCam HD-6000, Microsoft) and PC-based video capture software (WinAVI Video Capture, ZJ Media Digital Technology) for 10 min.

[6] = test system: C57BL/6J mice; experiment: Open-field reciprocal social interaction test; assay type: in vivo; details: same treatment
Procedure: as §2

[7] = test system: Scn1a+/− mice; experiment: Open field and elevated plus maze tests (sedation, anxiolysis); assay type: in vivo
Procedure: Open field test was performed as previously described^23. Briefly, each individual mouse was placed near the wall-side of 38×42 cm open-field arena, and the movement of the mouse was recorded by USB webcam (LIFECAM™ HD-6000, MICROSOFT™) and PC-based video capture software (WINAVI VIDEO CAPTURE™, ZJMEDIA DIGITAL TECHNOLOGY™) for 10 min. The recorded video file was further analyzed by off-line video tracking software (ETHOVISION™ XT 7.0, NOLDUS TECHNOLOGY™). Total distance traveled and time in center (15×15 cm imaginary square) were measured. The open field arena was cleaned with 70% ethanol and wiped with paper towels between each trial.
The elevated plus maze is a plus-shaped maze that is elevated 60 cm above the floor. It consists of two closed arms surrounded by 15-cm high transparent walls and two open arms (5×25 cm) with a small ledge along the side of two open arms to prevent falling from the maze during the test. Each mouse was placed in the center (5×5 cm) of the maze facing one of the closed arms. During the 10-min test period, the movement of the mouse was recorded by a USB webcam (LIFECAM™ HD-6000, MICROSOFT™) and PC-based video capture software (WINAVI VIDEO CAPTURE™, ZJ MEDIA DIGITAL TECHNOLOGY™). The recorded video file was further analyzed by off-line video tracking software (ETHOVISION™ XT 7.0). Times spent in closed arms, center, and open arms were measured. The maze was cleaned with 70% ethanol and wiped with paper towels between each trial.
Oral administration is specifically contemplated for the methods described herein, and is well known for both benzodiazepines and non-BDZ GABA-A enhancers as described herein.

[8] = test system: BTBR mice; experiment: Open field test; assay type: in vivo
Procedure: (§3) Open field test was performed as previously described (Han et al., 2012). 50×50 cm square open field arena with non-transparent white Plexiglas was used in this study. During the 10 min of trial, total distance moved, circling behavior (a complete 360-degree turn of nose angle with respect to the body center) and time in center (20×20 cm imaginary square) were measured by the video-tracking software (EthoVision XT 8.5, Noldus Technology).

[9] = test system: C57BL/6J mice; experiment: Open field test; assay type: in vivo
Procedure: as §3

Cn1ncnc1COc1nn2c(-c3cc(F)ccc3F)nnc2cc1C(C)(C)C [L-838,417]
action at α2, α3 and α5 subtypes [1]: partial agonist
substitution for chlordiazepoxide in animals ([2]; drug discrimination): substitutes for the anxiolytic benzodiazepine chlordiazepoxide
substitution for zolpidem in animals ([2]; drug discrimination): not for the hypnotic imidazopyridine drug zolpidem
sedative effects in animal studies ([2]; even at high doses): no sedative effects

O=C1CN=C(c2ccccc2Cl)c2cc([N+](=O)[O-])ccc2N1 [Clonazepam]
social interaction, open field social interaction test [3]: no effect; also recorded: absent; also recorded: not changed
social interaction, open field social interaction test [4]: completely rescued; also recorded: completely restored; also recorded: completely recovered
nose-to-nose interaction with stranger mouse [5]: significantly enhanced
total (reciprocal) social interaction with stranger mouse [5]: significantly enhanced
nose-to-nose interaction with stranger mouse ([5]; listed as CLZ): reversibly increases
total (reciprocal) social interaction with stranger mouse ([5]; listed as CLZ): reversibly increases
stereotyped circling behavior in open field with stranger mouse ([5]; low dose (FIG. 8C)): reduces
social interaction and stereotyped behavior [6]: unaffected
social interaction and stereotyped behavior ([6]; listed as CLZ): no significant effect
anxiolytic effect in elevated plus maze ([7]; 0.0625 mg/kg): did not elicit anxiolytic effects
anxiolytic effect in open field test ([7]; 0.0625 mg/kg): not observed
locomotor activity in open field test ([7]; 0.0625 mg/kg): not changed
sedation ([7]; both wild-type and Scn1a+/− mice, dose series): dose-dependent sedation
maximal intraperitoneal dose that did not cause significant sedation or anxiolytic effect ([7]; open field and elevated plus maze, Scn1a+/− mice): 0.0625 mg/kg
visits to center of open field (indicator of abnormally low anxiety) ([8]; 0.05 mg/kg): changed toward the values for C57BL/6J mice
locomotor activity under chronic low dose ([8]; 0.05 mg/kg daily for 14 days): did not cause any increase in locomotor activity; also recorded: did not have any effect
tolerance to sedative effect (locomotor activity Day 14 vs Day 1) ([8]; 1 mg/kg (high dose) for 14 days): significantly increased locomotor activity; also recorded: caused significant tolerance
locomotor activity on Day 14 compared to Day 1 ([8]; 1 mg/kg for 14 days): 222±42%
hyperactivity, total distance moved ([8]; single injection 0.05 mg/kg): significantly reduced
stereotyped circling behavior, number of 360° rotations ([8]; single injection 0.05 mg/kg): significantly reduced
anxiety-like behavior: avoidance of the center of an open field ([9]; low doses of clonazepam): little effect
hyperactivity (total distance moved) and circling behavior ([9]; low-dose clonazepam): unaffected
